According to patent US8138168B1 (Takeda Pharmaceutical Company Limited, priority 2007, dated 2012):
Like-named read-outs stand apart in the source and are kept apart here.

Biological target: T1, Recombinant human renin (Homo sapiens, UniProt P00797)
T1 construct: isolate the active form (residues 67-406); made in house; host or cells: FreeStyle 293-F cells (transient expression of pcDNA3.1(+)/hREN)
T1 sequence (P00797 67-406): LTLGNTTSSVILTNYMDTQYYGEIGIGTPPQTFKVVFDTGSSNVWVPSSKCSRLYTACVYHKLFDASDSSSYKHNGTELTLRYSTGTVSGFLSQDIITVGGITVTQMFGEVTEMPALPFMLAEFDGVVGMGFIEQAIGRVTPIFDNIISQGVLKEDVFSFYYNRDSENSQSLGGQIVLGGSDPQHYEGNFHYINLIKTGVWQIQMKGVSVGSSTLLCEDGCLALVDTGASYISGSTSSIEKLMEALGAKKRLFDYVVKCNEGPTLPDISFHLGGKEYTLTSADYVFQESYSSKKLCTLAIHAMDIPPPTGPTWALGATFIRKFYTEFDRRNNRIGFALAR
Assay: In vitro enzymatic activity assay of renin inhibitors (fluorogenic peptide substrate)
Assay type: biochemical
Method in brief: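 Recombinant human renin (3 nM final) pre-incubated 10 min at 37 °C with compounds in pH 7.4 Hepes/EDTA/DTT/0.1 mg/mL BSA/Brij35 buffer (optionally plus 2% BSA), 5% DMSO final; fluorogenic QXL520/HiLyteFluo488 peptide substrate added.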

[1] = read-out: IC50 of Exemplified Compounds Against Renin

| Structure (SMILES) | IC50 [1] [nM] | IC50 [nM] |
| --- | --- | --- |
| COCCCn1c([C@@H]2CCCN(C(=O)[C@@H]3CN(S(=O)(=O)c4ccccc4C(F)(F)F)C[C@H]3N)C2)nc2ccccc21 [Compound 402, ((3R,4S)-4-amino-1-(2-(trifluoromethyl)phenylsulfonyl)pyrrolidin-3-yl)((R)-3-(1-(3-methoxypropyl)-1H-benzo[d]imidazol-2-yl)piperidin-1-yl)methanone] | > 1000 |  |
| COCCCn1c([C@@H]2CCCN(C(=O)[C@@H]3CN(S(=O)(=O)c4ccc(Cl)cc4)C[C@H]3N)C2)nc2ccccc21 [Compound 370, ((3R,4S)-4-amino-1-(4-chlorophenylsulfonyl)pyrrolidin-3-yl)((R)-3-(1-(3-methoxypropyl)-1H-benzo[d]imidazol-2-yl)piperidin-1-yl)methanone] | 100 to 1000 |  |
| COCCCn1c([C@@H]2CCCN(C(=O)[C@@H]3CN(C(=O)Oc4cccc(C(F)(F)F)c4)C[C@H]3N)C2)nc2ccccc21 [Compound 408, (3S,4R)-3-(trifluoromethyl)phenyl 3-amino-4-((R)-3-(1-(3-methoxypropyl)-1H-benzo[d]imidazol-2-yl)piperidine-1-carbonyl)pyrrolidine-1-carboxylate] |  | > 1000 |
| Cc1cccc(C[C@@H](N)CC(=O)N2CCCC(c3nc4ccccc4[nH]3)C2)c1 (stereo partly drawn) [Compound 43, (3R)-1-(3-(1H-benzo[d]imidazol-2-yl)piperidin-1-yl)-3-amino-4-m-tolylbutan-1-one] | > 1000 |  |
| COCCCn1c([C@@H]2CCCN(C(=O)[C@@H]3CN(S(=O)(=O)c4cccc(-c5nnc(C)o5)c4)C[C@H]3N)C2)nc2ccccc21 [Compound 431, ((3R,4S)-4-amino-1-(3-(5-methyl-1,3,4-oxadiazol-2-yl)phenylsulfonyl)pyrrolidin-3-yl)((R)-3-(1-(3-methoxypropyl)-1H-benzo[d]imidazol-2-yl)piperidin-1-yl)methanone] | > 1000 |  |
| N[C@@H](CC(=O)N1CCCC(c2nc3ccccc3[nH]2)C1)c1ccc(Cl)cc1Cl (stereo partly drawn) [Compound 35, (3S)-1-(3-(1H-benzo[d]imidazol-2-yl)piperidin-1-yl)-3-amino-3-(2,4-dichlorophenyl)propan-1-one] | > 1000 |  |
| COCCCn1c([C@@H]2CCCN(C(=O)[C@@H]3CN(S(=O)(=O)c4ccc(Cl)cc4Cl)C[C@H]3N)C2)nc2ccccc21 [Compound 350, ((3R,4S)-4-amino-1-(2,4-dichlorophenylsulfonyl)pyrrolidin-3-yl)((R)-3-(1-(3-methoxypropyl)-1H-benzo[d]imidazol-2-yl)piperidin-1-yl)methanone] | 100 to 1000 |  |
| COCCCn1c([C@@H]2CCCN(C(=O)[C@@H]3CN(S(=O)(=O)C(C)C)C[C@H]3N)C2)nc2ccccc21 [Compound 371, ((3R,4S)-4-amino-1-(isopropylsulfonyl)pyrrolidin-3-yl)((R)-3-(1-(3-methoxypropyl)-1H-benzo[d]imidazol-2-yl)piperidin-1-yl)methanone] | 100 to 1000 |  |
| COCCCn1c([C@@H]2CCCN(C(=O)[C@@H]3CN(S(=O)(=O)c4cc(OC)ccc4OC)C[C@H]3N)C2)nc2ccccc21 [Compound 413, ((3R,4S)-4-amino-1-(2,5-dimethoxyphenylsulfonyl)pyrrolidin-3-yl)((R)-3-(1-(3-methoxypropyl)-1H-benzo[d]imidazol-2-yl)piperidin-1-yl)methanone] | > 1000 |  |
| COCCCn1c([C@@H]2CCCN(C(=O)[C@@H]3CN(S(=O)(=O)c4c(Cl)cc(Br)cc4Cl)C[C@H]3N)C2)nc2ccccc21 [Compound 339] | 100 to 1000 |  |
| CCCNC(=O)N1CCCC(c2nc3ccccc3[nH]2)C1 (stereo not drawn) [Compound 17, 3-(1H-benzo[d]imidazol-2-yl)-N-propylpiperidine-1-carboxamide] | > 1000 |  |

Further lines, with some results ahead:

| IC50 [1] [nM] | Structure (SMILES) | IC50 [nM] |
| --- | --- | --- |
| < 100 | COCCCn1c([C@@H]2CCCN(C(=O)C[C@H](N)Cc3ccc(-c4ccc(OC)cc4)cc3)C2)nc2ccccc21 [Compound 156, (R)-3-amino-4-(4′-methoxybiphenyl-4-yl)-1((R)-3-(1-(3-methoxypropyl)-1H-benzo[d]imidazol-2-yl)piperidin-1-yl)butan-1-one] |  |
| 100 to 1000 | CC(=O)NCCn1c([C@@H]2CCCN(C(=O)C[C@H](N)Cc3ccc(-c4ccc(N5CCNC5=O)cc4)cc3)C2)nc2ccccc21 [Compound 462, N-(2-(2-((R)-1-((R)-3-amino-4-(4′-(2-oxoimidazolidin-l-yl)biphenyl-4-yl)butanoyl)piperidin-3-yl)-1H-benzo[d]imidazol-1-yl)ethyl)acetamide] |  |
| 100 to 1000 | COCCCn1c([C@@H]2CCCN(C(=O)[C@@H]3CN(C(=O)c4cccc5ccccc45)C[C@H]3N)C2)nc2ccccc21 [Compound 376, ((3R,4S)-1-(1-naphthoyl)-4-aminopyrrolidin-3-yl)((R)-3-(1-(3-methoxypropyl)-1H-benzo[d]imidazol-2-yl)piperidin-1-yl)methanone] |  |
| 100 to 1000 | COCCCn1c([C@@H]2CCCN(C(=O)C[C@H](N)c3cccc(Br)c3)C2)nc2ccccc21 [Compound 80, (S)-3-amino-3-(3-bromophenyl)-1((R)-3-(1-(3-methoxypropyl)-1H-benzo[d]imidazol-2-yl)piperidin-1-yl)propan-1-one] |  |
| < 100 | COCCCn1c([C@@H]2CCCN(C(=O)C[C@H](N)Cc3ccc(-c4ccc(N5CCOCC5)nc4)cc3)C2)nc2ccccc21 [Compound 135, (R)-3-amino-1-((R)-3-(1-(3-methoxypropyl)-1H-benzo[d]imidazol-2-yl)piperidin-1-yl)-4-(4-(6-morpholinopyridin-3-yl)phenyl)butan-1-one] |  |
| 100 to 1000 | COCCCn1c([C@@H]2CCCN(C(=O)C[C@H](N)CNC(=O)c3ccccc3)C2)nc2ccccc21 [Compound 317, N-((S)-2-amino-4-((R)-3-(1-(3-methoxypropyl)-1H-benzo[d]imidazol-2-yl)piperidin-1-yl)-4-oxobutyl)benzamide] |  |
| < 100 | COCCCn1c([C@@H]2CCCN(C(=O)C[C@H](N)Cc3ccc(-c4ccc(O)nc4)cc3)C2)nc2c(F)cccc21 [Compound 451, (R)-3-amino-1-((R)-3-(4-fluoro-1-(3-methoxypropyl)-1H-benzo[d]imidazol-2-yl)piperidin-1-yl)-4-(4-(6-hydroxypyridin-3-yl)phenyl)butan-1-one] |  |
| < 100 | COCCCn1c([C@@H]2CCCN(C(=O)C[C@H](N)Cc3ccc(-c4csc(N5CC[C@H](O)C5)n4)cc3)C2)nc2ccccc21 [Compound 435, (R)-3-amino-4-(4-(2-((S)-3-hydroxypyrrolidin-1-yl)thiazol-4-yl)phenyl)-1-((R)-3-(1-(3-methoxypropyl)-1H-benzo[d]imidazol-2-yl)piperidin-1-yl)butan-1-one] |  |
| 100 to 1000 | COCCCn1c([C@@H]2CCCN(C(=O)C[C@H](N)CNC(=O)Nc3cccc(Oc4ccccc4)c3)C2)nc2ccccc21 [Compound 288, 1-((S)-2-amino-4-((R)-3-(1-(3-methoxypropyl)-1H-benzo[d]imidazol-2-yl)piperidin-1-yl)-4-oxobutyl)-3-(3-phenoxyphenyl)urea] |  |
| 100 to 1000 | COCCCn1c([C@@H]2CCCN(C(=O)C[C@H](N)CNS(=O)(=O)c3cccc(OC)c3)C2)nc2ccccc21 [Compound 315, N-((S)-2-amino-4-((R)-3-(1-(3-methoxypropyl)-1H-benzo[d]imidazol-2-yl)piperidin-1-yl)-4-oxobutyl)-3-methoxybenzenesulfonamide] |  |
| < 100 | CC(=O)NCCn1c([C@@H]2CCCN(C(=O)C[C@H](N)Cc3ccc(-c4ccc5c(c4)CC(=O)N5)cc3)C2)nc2ccccc21 [Compound 465, N-(2-(2-((R)-1-((R)-3-amino-4-(4-(2-oxoindolin-5-yl)phenyl)butanoyl)piperidin-3-yl)-1H-benzo[d]imidazol-1-yl)ethyl)acetamide] |  |
| 100 to 1000 | CC(=O)NCCn1c([C@@H]2CCCN(C(=O)C[C@H](N)Cc3ccc(-c4cnc(N)nc4)cc3)C2)nc2ccccc21 [Compound 450, N-(2-(2-((R)-1-((R)-3-amino-4-(4-(2-aminopyrimidin-5-yl)phenyl)butanoyl)piperidin-3-yl)-1H-benzo[d]imidazol-1-yl)ethyl)acetamide] |  |
| 100 to 1000 | COCCCn1c([C@@H]2CCCN(C(=O)C[C@H](N)CNC(=O)c3cccc(OC)c3)C2)nc2ccccc21 [Compound 310, N-((S)-2-amino-4-((R)-3-(1-(3-methoxypropyl)-1H-benzo[d]imidazol-2-yl)piperidin-1-yl)-4-oxobutyl)-3-methoxybenzamide] |  |
| < 100 | COCCCn1c([C@@H]2CCCN(C(=O)C[C@H](N)Cc3ccc(-c4ccc5c(c4)CC(=O)N5)cc3)C2)nc2c(C)cccc21 [Compound 495, 5-(4-((R)-2-amino-4-((R)-3-(1-(3-methoxypropyl)-4-methyl-1H-benzo[d]imidazol-2-yl)piperidin-l-yl)-4-oxobutyl)phenyl)indolin-2-one] |  |
| 100 to 1000 | CC(=O)NCCn1c([C@@H]2CCCN(C(=O)C[C@H](N)Cc3ccc(-c4ccc5c(c4)NC(=O)C5)cc3)C2)nc2ccccc21 [Compound 466, N-(2-(2-((R)-1-((R)-3-amino-4-(4-(2-oxoindolin-6-yl)phenyl)butanoyl)piperidin-3-yl)-1H-benzo[d]imidazol-1-yl)ethyl)acetamide] |  |
| < 100 | COCCCn1c([C@@H]2CCCN(C(=O)C[C@H](N)CNC(=O)c3ccc(-c4ccccc4)s3)C2)nc2ccccc21 [Compound 252, N-((S)-2-amino-4-((R)-3-(1-(3-methoxypropyl)-1H-benzo[d]imidazol-2-yl)piperidin-1-yl)-4-oxobutyl)-5-phenylthiophene-2-carboxamide] |  |
